{"source": "patent US20240295567A1", "about": "“HYPOXIA BIOMARKER AND USE THEREOF” (Kyoto University, priority 2021, published 2024)", "key": {"[1]": {"system": "human prostate cancer-derived cell line DU145", "test": "Colony formation test after gamma ray irradiation with or without recombinant SPINK1 protein", "format": "cell-based", "settings": "rSPINK1 100 ng/ml for 24 hours, 0, 2, 4 or 6 Gy gamma rays, cultured 14 days, FIG. 41", "method": "Human prostate cancer-derived cell line DU145 was cultured in serum-free medium under normal oxygen (20%) conditions for 24 hours. The medium was then replaced with normal medium (containing 5% serum) containing a recombinant SPINK1 protein at a final concentration of 100 ng/ml or with normal medium not containing the recombinant SPINK1 protein. The cells were cultured under normal oxygen conditions for 24 hours. The cells were then irradiated with 0, 2, 4, or 6 Gy gamma rays and cultured for 14 days. A colony formation test was then performed."}, "[2]": {"system": "human prostate cancer-derived cell line DU145", "test": "Viable cell quantification (Cell Count Reagent SF) after gamma ray irradiation with or without recombinant SPINK1 and anti-SPINK1 antibody", "format": "cell-based", "settings": "recombinant SPINK1 purified protein for 24 hours, 0 or 4 Gy gamma rays, 3 further days, FIG. 43", "method": "Human prostate cancer-derived cell line DU145 was seeded into 96-well cell culture plates (4×10^2 cells per well in a 96-well plate when the dose of the subsequent irradiation is 0 Gy; and 1.2×10^3 cells per well when the dose is 4 Gy) and cultured in a CO2 incubator under a normal oxygen concentration overnight. Thereafter, the cells were cultured in serum-free medium for another 24 hours and then cultured in the presence or absence of recombinant SPINK1 purified protein and in the presence or absence of anti-SPINK1 antibody under normal oxygen conditions for 24 hours. The cells were then irradiated with 0 Gy or 4 Gy gamma rays and cultured under normal oxygen conditions for an additional 3 days. Viable cells were then quantified with Cell Count Reagent SF (produced by Nacalai Tesque, Inc., Catalog #07553-44)."}}, "data": [{"substance": "recombinant SPINK1 protein: recombinant SPINK1 (serine protease inhibitor Kazal type I) protein added to culture medium (DSLGREAKCYNELNGCTKIYDPVCGTDGNTYPNECVLCFENRKRQTSILIQKSGPC; UniProt P00995 24-79, looked up)", "values": [{"measurement": "radiation resistance of the cells (colony formation)", "setting": "[1]", "result": "radiation resistance of the cells is induced"}, {"measurement": "radiation resistance of the cells (viable cells)", "setting": "[2]", "result": "radiation resistance of the cells was induced"}]}]}
